# Results taken from US20150197492A1, “NOVEL INDENO[1,2-c]QUINOLIN-11-ONE DERIVATIVES, PREPARATION METHOD AND APPLICATION THEREOF” (National Defense Medical Center, priority 2014, published 2015).
# What was measured:
# Format in all cases: cell-based
# NCI-H522 = test: cells; conditions: NCI-H522 (Non-Small Cell Lung Cancer), 10 μM, 48 hours
# UACC-62 = test: cells; conditions: UACC-62 (Melanoma), 10 μM, 48 hours
# CAKI-1 = test: cells; conditions: CAKI-1 (Renal Cancer), 10 μM, 48 hours
# MALME-3M = test: cells; conditions: MALME-3M (Melanoma), 10 μM, 48 hours
# [1] = test system: 55 to 60 cancer cell lines; conditions: 10 μM, 48 hours, all tested cell lines
# SK-MEL-28 = test: cells; conditions: SK-MEL-28 (Melanoma), 10 μM, 48 hours
# SN12C = test: cells; conditions: SN12C (Renal Cancer), 10 μM, 48 hours
# SR = test: cells; conditions: SR (Leukemia), 10 μM, 48 hours
# BT-549 = test: cells; conditions: BT-549 (Breast Cancer), 10 μM, 48 hours
# MDA-MB-435 = test: cells; conditions: MDA-MB-435 (Melanoma), 10 μM, 48 hours
# KM12 = test: cells; conditions: KM12 (Colon Cancer), 10 μM, 48 hours
# DU-145 = test: cells; conditions: DU-145 (Prostate Cancer), 10 μM, 48 hours
# MOLT-4 = test: cells; conditions: MOLT-4 (Leukemia), 10 μM, 48 hours
# UACC-257 = test: cells; conditions: UACC-257 (Melanoma), 10 μM, 48 hours
# OVCAR-8 = test: cells; conditions: OVCAR-8 (Ovarian Cancer), 10 μM, 48 hours
# T-47D = test: cells; conditions: T-47D (Breast Cancer), 10 μM, 48 hours
# OVCAR-5 = test: cells; conditions: OVCAR-5 (Ovarian Cancer), 10 μM, 48 hours
# human PC-3 cells = test: Sulforhodamine B (SRB) assay, cytotoxicity against PC-3 cells; conditions: SRB assay, PC-3 cells
# In short: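 PC-3 cells in 5% FBS were fixed with 10% TCA after 24 h as T0, then treated with compound for 48 h, fixed, stained with 0.4% SRB in 1% acetic acid and solubilized in 10 mmol/L Trizma base. Absorbance was read at 515 nm. GI% = 100−[(Tx−T0)/(C−T0)]×100, and IC50 is the concentration halving total protein.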
# MDA-MB-468 = test: cells; conditions: MDA-MB-468 (Breast Cancer), 10 μM, 48 hours
# 786-0 = test: cells; conditions: 786-0 (Renal Cancer), 10 μM, 48 hours
# HS 578T = test: cells; conditions: HS 578T (Breast Cancer), 10 μM, 48 hours
# OVCAR-3 = test: cells; conditions: OVCAR-3 (Ovarian Cancer), 10 μM, 48 hours
# ACHN = test: cells; conditions: ACHN (Renal Cancer), 10 μM, 48 hours
# OVCAR-4 = test: cells; conditions: OVCAR-4 (Ovarian Cancer), 10 μM, 48 hours
# SF-295 = test: cells; conditions: SF-295 (CNS Cancer), 10 μM, 48 hours
# HT29 = test: cells; conditions: HT29 (Colon Cancer), 10 μM, 48 hours
# NCI-H322M = test: cells; conditions: NCI-H322M (Non-Small Cell Lung Cancer), 10 μM, 48 hours
# SNB-19 = test: cells; conditions: SNB-19 (CNS Cancer), 10 μM, 48 hours
# PC-3 = test: cells; conditions: PC-3 (Prostate Cancer), 10 μM, 48 hours
# CCRF-CEM = test: cells; conditions: CCRF-CEM (Leukemia), 10 μM, 48 hours
smiles,measurement,setting,value
"O=C1c2cc(Cl)ccc2-c2c(N3CCN(C4CCCC4)CC3)nc3ccccc3c21 [SJ-14, 9-Chloro-6-(4-cyclopentylpiperazin-1-yl)-11H-indeno[1,2-c]quinolin-11-one]",growth percentage,NCI-H522,98.72%
same,growth percentage,UACC-62,95.06%
same,growth percentage,CAKI-1,93.83%
same,growth percentage,MALME-3M,92.48%
same,Mean (mean growth percentage of the tested cancer cell lines),[1],96.53%
same,growth percentage,SK-MEL-28,107.58%
same,growth percentage,SN12C,99.08%
same,growth percentage,SR,97.09%
same,growth percentage,BT-549,102.74%
same,growth percentage,MDA-MB-435,99.93%
same,growth percentage,KM12,99.33%
same,growth percentage,DU-145,110.73%
same,growth percentage,MOLT-4,98.39%
same,growth percentage,UACC-257,98.37%
same,growth percentage,OVCAR-8,96.55%
same,growth percentage,T-47D,92.20%
same,growth percentage,OVCAR-5,106.41%
same,Toxicity (%),human PC-3 cells,0%
same,GI % (10 μM),human PC-3 cells; 10 μM,96.26%
same,growth percentage,MDA-MB-468,103.99%
same,growth percentage,786-0,97.90%
same,growth percentage,HS 578T,99.40%
same,growth percentage,OVCAR-3,99.54%
same,growth percentage,ACHN,100.03%
same,growth percentage,OVCAR-4,94.20%
same,growth percentage,SF-295,96.87%
same,growth percentage,HT29,93.22%
same,growth percentage,NCI-H322M,98.50%
same,growth percentage,SNB-19,95.06%
same,growth percentage,PC-3,86.19%
same,growth percentage,CCRF-CEM,95.17%
